Here are results for 18 molecules from patent publication US20080234262A1 (Wyeth, priority 2007, published 2008).

SMILES strings stand for the structures.

Assay [1] concerns breast line MDA468. Nature of the assay: In vitro cell culture growth assay (MTS), MDA468. Format: cell-based, human. The following applies: Homo sapiens, 72 h, MDA468 cells, three days after drug treatment. The gist of the method:
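Growth measured as percent of same-plate vehicle control by MTS metabolic dye conversion (A490). Breast MDA468 and prostate LNCap cells, plated a day ahead, were exposed to compounds for 3 days.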

Assay [2] deals with prostate line LNCap. Nature of the assay: In vitro cell culture growth assay (MTS), LNCap.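 Further: viable cell density read by absorbance at 490 nm, growth expressed as percent of vehicle-treated cells on the same plate.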 Type of assay: cell-based, human. To be noted: Homo sapiens, LNCaP, 72 h, LNCap cells, three days after drug treatment.
The target in assay [3] is PI3K (Homo sapiens, UniProt P42336). Put plainly: Fluorescence polarization assay for PI3K.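 Further: PI3K kinase reaction on PIP2 with ATP, 30-60 min, product sensed by GST-GRP with red probe in fluorescence polarization (mP), controls without enzyme and at zero time.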 Type of assay: biochemical. To be noted: PI3Kα; read-out: PI3Kα IC50.
Chain of PI3K (P42336 whole entry): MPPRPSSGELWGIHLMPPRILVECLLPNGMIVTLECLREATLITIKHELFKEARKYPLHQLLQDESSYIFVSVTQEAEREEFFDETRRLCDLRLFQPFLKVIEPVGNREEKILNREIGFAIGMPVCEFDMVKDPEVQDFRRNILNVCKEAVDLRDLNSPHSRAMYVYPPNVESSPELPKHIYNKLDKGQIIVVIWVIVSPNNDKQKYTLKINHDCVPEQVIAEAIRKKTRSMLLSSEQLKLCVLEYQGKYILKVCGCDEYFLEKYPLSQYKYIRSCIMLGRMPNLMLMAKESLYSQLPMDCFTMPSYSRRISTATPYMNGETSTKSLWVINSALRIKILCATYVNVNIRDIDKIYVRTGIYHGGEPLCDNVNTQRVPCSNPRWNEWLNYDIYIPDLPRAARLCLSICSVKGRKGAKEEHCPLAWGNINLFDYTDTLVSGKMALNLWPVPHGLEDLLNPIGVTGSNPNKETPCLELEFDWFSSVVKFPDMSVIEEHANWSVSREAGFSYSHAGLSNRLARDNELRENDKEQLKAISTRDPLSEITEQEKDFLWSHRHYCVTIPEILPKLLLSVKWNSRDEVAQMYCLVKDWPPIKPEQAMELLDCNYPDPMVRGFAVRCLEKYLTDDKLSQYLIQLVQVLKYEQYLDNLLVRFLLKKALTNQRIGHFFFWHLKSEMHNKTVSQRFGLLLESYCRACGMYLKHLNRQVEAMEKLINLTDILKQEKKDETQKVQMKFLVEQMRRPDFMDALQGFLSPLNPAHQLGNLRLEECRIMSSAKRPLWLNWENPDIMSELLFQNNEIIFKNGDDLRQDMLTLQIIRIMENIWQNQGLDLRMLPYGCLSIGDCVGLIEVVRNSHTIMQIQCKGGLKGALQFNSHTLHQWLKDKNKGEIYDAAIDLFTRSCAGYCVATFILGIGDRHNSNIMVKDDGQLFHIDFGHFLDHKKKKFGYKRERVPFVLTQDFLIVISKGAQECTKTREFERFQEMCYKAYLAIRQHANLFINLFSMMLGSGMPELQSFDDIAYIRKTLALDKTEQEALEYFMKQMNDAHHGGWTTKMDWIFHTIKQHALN
Chain of PI3K (P27986 whole entry partner): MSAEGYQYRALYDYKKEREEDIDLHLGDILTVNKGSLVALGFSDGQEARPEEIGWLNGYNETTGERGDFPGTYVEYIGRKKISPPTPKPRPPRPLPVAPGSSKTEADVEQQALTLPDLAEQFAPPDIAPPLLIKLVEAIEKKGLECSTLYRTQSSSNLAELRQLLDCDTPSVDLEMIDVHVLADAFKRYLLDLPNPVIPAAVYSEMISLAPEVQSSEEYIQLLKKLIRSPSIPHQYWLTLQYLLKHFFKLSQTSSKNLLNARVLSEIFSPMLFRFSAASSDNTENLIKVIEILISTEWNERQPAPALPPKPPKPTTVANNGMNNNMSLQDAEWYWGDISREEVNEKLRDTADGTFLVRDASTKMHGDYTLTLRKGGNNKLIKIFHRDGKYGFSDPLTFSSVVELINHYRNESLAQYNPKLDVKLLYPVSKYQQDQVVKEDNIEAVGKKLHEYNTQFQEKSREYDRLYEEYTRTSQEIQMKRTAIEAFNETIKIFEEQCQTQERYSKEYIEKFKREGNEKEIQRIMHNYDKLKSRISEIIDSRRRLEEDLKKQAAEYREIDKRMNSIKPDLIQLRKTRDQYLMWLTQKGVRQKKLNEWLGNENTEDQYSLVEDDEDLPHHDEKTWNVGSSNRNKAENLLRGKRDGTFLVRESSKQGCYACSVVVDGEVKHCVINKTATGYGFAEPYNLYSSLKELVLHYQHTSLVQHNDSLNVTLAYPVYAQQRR

The IC50 is the concentration that inhibits the measured activity by half. For `COC(=O)Nc1ccc(-c2nc(N3CCOCC3)c3cnn(C4CCN(Cc5cccnc5OC)CC4)c3n2)cc1` [Compound 452, methyl [4-(1-{1-[(2-methoxypyridin-3-yl)methyl]piperidin-4-yl}-4-morpholin-4-yl-1H-pyrazolo[3,4-d]pyrimidin-6-yl)phenyl]carbamate], the IC50 in assay [1] was determined as 2.2 µM; in assay [2], 0.6 µM; in assay [3], 1.83 µM.
The like results for `COC(=O)Nc1ccc(-c2nc(N3CCOCC3)c3cnn(C4CCN(Cc5ccccc5Cl)CC4)c3n2)cc1` [Compound 455, methyl (4-{1-[1-(2-chlorobenzyl)piperidin-4-yl]-4-morpholin-4-yl-1H-pyrazolo[3,4-d]pyrimidin-6-yl}phenyl)carbamate] were, in that order, 5.2 µM, 2.5 µM and 0.786 µM.
Take `COC(=O)Nc1ccc(-c2nc(N3CCOCC3)c3cnn(C4CCN(CC(N)=O)CC4)c3n2)cc1` [Compound 456, methyl (4-{1-[1-(2-amino-2-oxoethyl)piperidin-4-yl]-4-morpholin-4-yl-1H-pyrazolo[3,4-d]pyrimidin-6-yl}phenyl)carbamate]: the concentration for half-maximal inhibition (IC50) came to 3.2 µM in assay [1], 1.3 µM in assay [2] and 1.43 µM in assay [3].
The like results for `COC(=O)Nc1ccc(-c2nc(N3CCOCC3)c3cnn(C4CCN(CC(=O)c5ccccc5)CC4)c3n2)cc1` [Compound 457, methyl (4-{4-morpholin-4-yl-1-[1-(2-oxo-2-phenylethyl)piperidin-4-yl]-1H-pyrazolo[3,4-d]pyrimidin-6-yl}phenyl)carbamate] were, in that order, 1.8 µM, 0.5 µM and 0.585 µM.
With `C=CC(=O)N1CCC(n2ncc3c(N4CCOCC4)nc(-c4ccc(NC(=O)OC)cc4)nc32)CC1` [Compound 458, methyl {4-[1-(1-acryloylpiperidin-4-yl)-4-morpholin-4-yl-1H-pyrazolo[3,4-d]pyrimidin-6-yl]phenyl}carbamate], the results for the IC50 in assay [1], in assay [2] and in assay [3] were 1.2 µM, 0.93 µM and 1.98 µM, respectively.
For `COC(=O)Nc1ccc(-c2nc(N3CCOCC3)c3cnn(C4CCNCC4)c3n2)cc1` [Compound 459, methyl [4-(4-morpholin-4-yl-1-piperidin-4-yl-1H-pyrazolo[3,4-d]pyrimidin-6-yl)phenyl]carbamate] the same measures were 3 µM, 1.7 µM and 1.07 µM.
Consider `Nc1ccc(-c2nc(N3CCOCC3)c3cnn(C4CCN(C(=O)c5cccnc5)CC4)c3n2)c(F)c1` [Compound 460, 3-fluoro-4-{4-morpholin-4-yl-1-[1-(pyridin-3-ylcarbonyl)piperidin-4-yl]-1H-pyrazolo[3,4-d]pyrimidin-6-yl}aniline], for which the figures for the IC50 in assay [1], in assay [2] and in assay [3] were 14 µM, 4.9 µM and 4.03 µM, respectively.
Turning to `O=C(Nc1cc(F)c(-c2nc(N3CCOCC3)c3cnn(C4CCN(C(=O)c5cccnc5)CC4)c3n2)cc1F)NC1CC1` [Compound 468, 1-cyclopropyl-3-(2,5-difluoro-4-{4-morpholin-4-yl-1-[1-(pyridin-3-ylcarbonyl)piperidin-4-yl]-1H-pyrazolo[3,4-d]pyrimidin-6-yl}phenyl)urea], the IC50 in assay [1] was found to be 2.2 µM; in assay [2] it was 1 µM; in assay [3], 3.56 µM.
The like results for `FC(F)(F)CN1CCC(n2ncc3c(N4CCOCC4)nc(-c4ccc5[nH]ccc5c4)nc32)CC1` [Compound 471, 6-(1H-indol-5-yl)-4-morpholin-4-yl-1-[1-(2,2,2-trifluoroethyl)piperidin-4-yl]-1H-pyrazolo[3,4-d]pyrimidine] were, in that order, 7.8 µM, 4 µM and 2.88 µM.
For `CNC(=O)Nc1ccc(-c2nc(N3CCOCC3)c3cnn(C4CCN(C(=O)c5cccnc5)CC4)c3n2)cn1` [Compound 480, 1-methyl-3-(5-{4-morpholin-4-yl-1-[1-(pyridin-3-ylcarbonyl)piperidin-4-yl]-1H-pyrazolo[3,4-d]pyrimidin-6-yl}pyridin-2-yl)urea], the concentration for half-maximal inhibition (IC50) in assay [1] was 1.2 µM; in assay [2], 0.8 µM; in assay [3], 0.042 µM.
Turning to `CNC(=O)Nc1cccc(-c2nc(N3CCOCC3)c3cnn(C4CCN(Cc5ccccc5)CC4)c3n2)c1` [Compound 482, N-{3-[1-(1-benzylpiperidin-4-yl)-4-morpholin-4-yl-1H-pyrazolo[3,4-d]pyrimidin-6-yl]phenyl}-N′-methylurea], the 50% inhibitory concentration (IC50) stood at 6.8 µM in assay [1], 5.8 µM in assay [2] and 1.92 µM in assay [3].
For `NC(=O)Nc1cccc(-c2nc(N3CCOCC3)c3cnn(C4CCN(Cc5ccccc5)CC4)c3n2)c1` [Compound 483, N-{3-[1-(1-benzylpiperidin-4-yl)-4-morpholin-4-yl-1H-pyrazolo[3,4-d]pyrimidin-6-yl]phenyl}urea] the same measures were 12 µM, 6.8 µM and 2.17 µM.
Take `c1ccc(CN2CCC(n3ncc4c(N5CCOCC5)nc(-c5cnc6ccccc6c5)nc43)CC2)cc1` [Compound 484, 3-[1-(1-benzylpiperidin-4-yl)-4-morpholin-4-yl-1H-pyrazolo[3,4-d]pyrimidin-6-yl]quinoline]: the results for the IC50 in assay [1], in assay [2] and in assay [3] were 22 µM, over 60 µM and 6 µM, respectively.
The like results for `CN(C)CC=CC(=O)N1CCC(n2ncc3c(N4CCOCC4)nc(-c4ccc5[nH]ccc5c4)nc32)CC1` [Compound 487, 4-{4-[6-(1H-indol-5-yl)-4-morpholin-4-yl-1H-pyrazolo[3,4-d]pyrimidin-1-yl]piperidin-1-yl}-N,N-dimethyl-4-oxobut-2-en-1-amine] were, in that order, 2 µM, 1 µM and 0.48 µM.
As for `CC(C)N1CCC(n2ncc3c(N4CCOCC4)nc(-c4ccc5[nH]ccc5c4)nc32)CC1` [Compound 488, 6-(1H-indol-5-yl)-1-(1-isopropylpiperidin-4-yl)-4-morpholin-4-yl-1H-pyrazolo[3,4-d]pyrimidine], the IC50 in assay [1] worked out at 2.9 µM; in assay [2], 2.5 µM; in assay [3] it was 3.75 µM.
As for `c1ccc(CCN2CCC(n3ncc4c(N5CCOCC5)nc(-c5ccc6[nH]ccc6c5)nc43)CC2)cc1` [Compound 489, 6-(1H-indol-5-yl)-4-morpholin-4-yl-1-[1-(2-phenylethyl)piperidin-4-yl]-1H-pyrazolo[3,4-d]pyrimidine], the 50% inhibitory concentration (IC50) came out at 3.1 µM in assay [1], 0.78 µM in assay [2] and 3.09 µM in assay [3].
For `CC(c1ccccc1)N1CCC(n2ncc3c(N4CCOCC4)nc(-c4ccc5[nH]ccc5c4)nc32)CC1` (stereo not drawn) [Compound 490, 6-(1H-indol-5-yl)-4-morpholin-4-yl-1-[1-(1-phenylethyl)piperidin-4-yl]-1H-pyrazolo[3,4-d]pyrimidine] the same measures were 3.5 µM, 3.8 µM and 2.67 µM.
Consider `COCCN1CCC(n2ncc3c(N4CCOCC4)nc(-c4ccc5[nH]ccc5c4)nc32)CC1` [Compound 491, 6-(1H-indol-5-yl)-1-[1-(2-methoxyethyl)piperidin-4-yl]-4-morpholin-4-yl-1H-pyrazolo[3,4-d]pyrimidine], for which the values for the concentration for half-maximal inhibition (IC50) in assay [1], in assay [2] and in assay [3] were 4.2 µM, 2.4 µM and 5 µM, respectively.
